As a reminder, the inhibition is the relative decrease from the control value, in per cent.

Type in all cases: in vivo
The test system of experiment [1] is rice (Oryza sativa L.) (var.: Nihonbare). The experiment is described as follows: Test Example 3, paddy field pot, transplanted rice. Particulars: applied 4th day after transplantation, 20th to 23rd day after application, read-out: Growth inhibition rate (%) Rice. In a few lines:
(§1)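 Weeds were sown or planted in flooded paddy-soil pots and treated in the water at 0.5-leaf or primary-leaf stage. Rice (Nihonbare), transplanted at two-leaf stage 3 cm deep, was treated on day 4. Diluted wettable powder or emulsifiable concentrate was used, and growth inhibition (0–100%) was scored visually at 13–17 days for weeds and 20–23 days for rice.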

The test system of experiment [2] is velvetleaf (Abutilon theophrasti MEDIC.). Kind of experiment: Test Example 2, soil application on the day after sowing. Particulars: 21st to 22nd day after application, visual, read-out: Growth inhibition rate (%) Velvetleaf. In a few lines:
(§2)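 Soil treatment one day post-sowing in upland soil pots, active ingredient at prescribed amounts in 500 L/ha spray water; percent inhibition versus untreated scored visually on day 21–22.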

In experiment [3] the test system is redroot pigweed (Amaranthus retroflexus L.). The experiment is described as above. The note with it: 21st to 22nd day after application, visual, read-out: Growth inhibition rate (%) Redroot pigweed. Summed up: as §2
Experiment [4] deals with prickly sida (Sida spinosa L.). The experiment is described as above. Particulars: 21st to 22nd day after application, visual, read-out: Growth inhibition rate (%) Prickly sida. In a few lines:
as §2

The subject of experiment [5] is crabgrass (Digitaria sanquinalis L.). The experiment is described as above. The note with it: 21st to 22nd day after application, visual, read-out: Growth inhibition rate (%) Crabgrass. Summed up:
as §2

Experiment [6] concerns green foxtail (Setaria viridis L.). The experiment is described as above. Particulars: 21st to 22nd day after application, visual, read-out: Growth inhibition rate (%) Green foxtail. Summed up:
as §2

The test system of experiment [7] is soybean (Glycine max Merr.). The experiment is described as above. The note with it: 21st to 22nd day after application, visual, read-out: Growth inhibition rate (%) Soybean. In a few lines: as §2
For experiment [8], the system named is rice (Oryza sativa L.). The experiment is described as above. The note with it: 21st to 22nd day after application, visual, read-out: Growth inhibition rate (%) Rice. In a few lines: as §2
The subject of experiment [9] is wheat (Triticum spp.). Described as above. The note with it: 21st to 22nd day after application, visual, read-out: Growth inhibition rate (%) Wheat. In a few lines: as §2
The test system of experiment [10] is barnyardgrass (Echinochloa crus-galli L.). Described as above. The note with it: 21st to 22nd day after application, visual, read-out: Growth inhibition rate (%) Barnyardgrass. Summed up:
as §2

Experiment [11] concerns corn (Zea mays L.). The description is as above. The note with it: 21st to 22nd day after application, visual, read-out: Growth inhibition rate (%) Corn. Summed up: as §2
For experiment [12], the system named is barnyardgrass (Echinochloa oryzicola vasing.). Kind of experiment: Test Example 3, paddy field pot, application to irrigated water. The note with it: applied at 0.5 leaf stage, 13th to 17th day after application, read-out: Growth inhibition rate (%) barnyard grass. Summed up: as §1
Experiment [13] concerns Japanese ribbon waparo (Sagittaria pygmaea). The experiment is described as above. The note with it: applied at primary leaf stage, 13th to 17th day after application, read-out: Growth inhibition rate (%) Japanese ribbon waparo. Summed up:
as §1

Experiment [14] relates to Japanese bulrush (Scirpus juncoides). Described as above. Particulars: Schoenoplectiella juncoides, applied at 0.5 leaf stage, 13th to 17th day after application, read-out: Growth inhibition rate (%) Japanese bulrush. In a few lines:
as §1

Take `COCCOc1c(S(C)(=O)=O)ccc(C(=O)c2c(C)nn(C)c2O)c1C` [Compound No. 5-2, (5-Hydroxy-1,3-dimethyl-1H-pyrazol-4-yl)(3-(2-methoxyethoxy)-2-methyl-4-(methylsulfonyl)phenyl)ketone]: the inhibition at 63 g/ha is 20% in experiment [1], 80% in experiment [12], 80% in experiment [13] and 70% in experiment [14]. For the same molecule, the inhibition at 250 g/ha in [2] was 70%; in experiment [3], 90%; in experiment [4], 0%; in [5] it was 100%; in experiment [6] it was 60%; in experiment [7] it was 20%. In addition, the inhibition at 250 g/ha in [8] came to 10%; in [9], 0%; in experiment [10], 10%; in experiment [11] it was 0%.
As for `CCc1nn(C)c(O)c1C(=O)c1ccc(S(C)(=O)=O)c(OCCOC)c1C` [Compound No. 5-3, (5-Hydroxy-1-methyl-3-ethyl-1H-pyrazol-4-yl)(3-(2-methoxyethoxy)-2-methyl-4-(methylsulfonyl)phenyl)ketone], the inhibition at 63 g/ha in [1] amounted to 20%; in experiment [12] it was 60%; in experiment [13] it was 50%; in experiment [14], 50%. For the same molecule, the inhibition at 250 g/ha in experiment [2] turned out to be 30%; in [3], 100%; in [4], 20%; in experiment [5], 95%; in [6], 60%; in experiment [7], 0%. For the same molecule, the inhibition at 250 g/ha in experiment [8] turned out to be 20%; in experiment [9], 0%; in [10], 50%; in experiment [11], 20%.
Take `CCn1nc(C)c(C(=O)c2ccc(S(C)(=O)=O)c(OCCOC)c2C)c1O` [Compound No. 6-1, (1-Ethyl-5-hydroxy-3-methyl-1H-pyrazol-4-yl)(3-(2-methoxyethoxy)-2-methyl-4-(methylsulfonyl)phenyl)ketone]: the inhibition at 63 g/ha in [1] was 40%; in [12], 60%; in experiment [13], 60%; in experiment [14] it was 80%. Also, the inhibition at 250 g/ha in [2] was determined as 80%; in experiment [3] it was 100%; in experiment [4], 80%; in experiment [5], 100%; in [6], 98%; in [7] it was 60%. The inhibition at 250 g/ha in [8] is 100%; in experiment [9], 20%; in experiment [10], 100%; in experiment [11] it was 0%.
`CCCn1ncc(C(=O)c2ccc(S(C)(=O)=O)c(OCCOC)c2C)c1O` [Compound No. 7-1, (5-Hydroxy-1-n-propyl-1H-pyrazol-4-yl)(3-(2-methoxyethoxy)-2-methyl-4-(methylsulfonyl)phenyl)ketone]: the inhibition at 63 g/ha came to 20% in experiment [1], 30% in experiment [12], 90% in [13] and 70% in experiment [14]. For the same molecule, the inhibition at 250 g/ha came to 95% in experiment [2]; 100% in experiment [3]; 80% in experiment [4]; 100% in experiment [5]; 90% in experiment [6]; 20% in [7]. Moreover, the inhibition at 250 g/ha in experiment [8] is 98%; in experiment [9], 40%; in experiment [10], 98%; in [11], 0%.

Values taken from US8466089B2, “Pyrazole compounds, process for their production and herbicides containing them” (Ishihara Sangyo Kaisha, Ltd., priority 2008, dated 2013).
